Source: patent US20250195484A1, “CEREBLON LIGANDS AND USES THEREOF” (priority 2022, published 2025)

Tests used:
Type in all cases: cell-based
[1] = biological target: T1, CBP (Homo sapiens, UniProt Q92793); assay: CBP degradation, western blot, 22Rv1; conditions: 22Rv1, 5 h
T1 construct: endogenous in cells; host or cells: 22Rv1
Experimental: (§1) WesternT Blot Analysis. Western blot analysis was performed essentially as described previously. The cells treated with indicated compounds were lysed in Radioimmunoprecipitation Assay Protein Lysis and Extraction Buffer (25 mmol/L Tris.HCl, pH 7.6, 150 mmol/L NaCl, 1% Nonidet P-40, 1% sodium deoxycholate, and 0.1% sodium dodecyl sulfate) containing proteinase inhibitor cocktail (Roche Diagnostics, Mannheim, Germany). Equal amounts of total protein were electrophoresed through 10% SDS-polyacrylamide gels after determination of protein concentration by BCA assay (Fisher Scientific, Pittsburgh, PA). The separated protein bands were transferred onto PVDF membranes (GE Healthcare Life Sciences, Marlborough, MA) and blotted against different antibodies, as indicated. The blots were scanned, and the band intensities were quantified using GelQuant.NET software provided by biochemlabsolutions.com. The relative mean intensity of target proteins was expressed after normalization to the intensity of glyceraldehyde-3-phosphate dehydrogenase bands.

[2] = biological target: T2, P300 (Homo sapiens, UniProt Q09472); assay: P300 degradation, western blot, 22Rv1; conditions: 22Rv1, 5 h
T2 construct: endogenous in cells; host or cells: 22Rv1
T2 sequence (Q09472 whole entry): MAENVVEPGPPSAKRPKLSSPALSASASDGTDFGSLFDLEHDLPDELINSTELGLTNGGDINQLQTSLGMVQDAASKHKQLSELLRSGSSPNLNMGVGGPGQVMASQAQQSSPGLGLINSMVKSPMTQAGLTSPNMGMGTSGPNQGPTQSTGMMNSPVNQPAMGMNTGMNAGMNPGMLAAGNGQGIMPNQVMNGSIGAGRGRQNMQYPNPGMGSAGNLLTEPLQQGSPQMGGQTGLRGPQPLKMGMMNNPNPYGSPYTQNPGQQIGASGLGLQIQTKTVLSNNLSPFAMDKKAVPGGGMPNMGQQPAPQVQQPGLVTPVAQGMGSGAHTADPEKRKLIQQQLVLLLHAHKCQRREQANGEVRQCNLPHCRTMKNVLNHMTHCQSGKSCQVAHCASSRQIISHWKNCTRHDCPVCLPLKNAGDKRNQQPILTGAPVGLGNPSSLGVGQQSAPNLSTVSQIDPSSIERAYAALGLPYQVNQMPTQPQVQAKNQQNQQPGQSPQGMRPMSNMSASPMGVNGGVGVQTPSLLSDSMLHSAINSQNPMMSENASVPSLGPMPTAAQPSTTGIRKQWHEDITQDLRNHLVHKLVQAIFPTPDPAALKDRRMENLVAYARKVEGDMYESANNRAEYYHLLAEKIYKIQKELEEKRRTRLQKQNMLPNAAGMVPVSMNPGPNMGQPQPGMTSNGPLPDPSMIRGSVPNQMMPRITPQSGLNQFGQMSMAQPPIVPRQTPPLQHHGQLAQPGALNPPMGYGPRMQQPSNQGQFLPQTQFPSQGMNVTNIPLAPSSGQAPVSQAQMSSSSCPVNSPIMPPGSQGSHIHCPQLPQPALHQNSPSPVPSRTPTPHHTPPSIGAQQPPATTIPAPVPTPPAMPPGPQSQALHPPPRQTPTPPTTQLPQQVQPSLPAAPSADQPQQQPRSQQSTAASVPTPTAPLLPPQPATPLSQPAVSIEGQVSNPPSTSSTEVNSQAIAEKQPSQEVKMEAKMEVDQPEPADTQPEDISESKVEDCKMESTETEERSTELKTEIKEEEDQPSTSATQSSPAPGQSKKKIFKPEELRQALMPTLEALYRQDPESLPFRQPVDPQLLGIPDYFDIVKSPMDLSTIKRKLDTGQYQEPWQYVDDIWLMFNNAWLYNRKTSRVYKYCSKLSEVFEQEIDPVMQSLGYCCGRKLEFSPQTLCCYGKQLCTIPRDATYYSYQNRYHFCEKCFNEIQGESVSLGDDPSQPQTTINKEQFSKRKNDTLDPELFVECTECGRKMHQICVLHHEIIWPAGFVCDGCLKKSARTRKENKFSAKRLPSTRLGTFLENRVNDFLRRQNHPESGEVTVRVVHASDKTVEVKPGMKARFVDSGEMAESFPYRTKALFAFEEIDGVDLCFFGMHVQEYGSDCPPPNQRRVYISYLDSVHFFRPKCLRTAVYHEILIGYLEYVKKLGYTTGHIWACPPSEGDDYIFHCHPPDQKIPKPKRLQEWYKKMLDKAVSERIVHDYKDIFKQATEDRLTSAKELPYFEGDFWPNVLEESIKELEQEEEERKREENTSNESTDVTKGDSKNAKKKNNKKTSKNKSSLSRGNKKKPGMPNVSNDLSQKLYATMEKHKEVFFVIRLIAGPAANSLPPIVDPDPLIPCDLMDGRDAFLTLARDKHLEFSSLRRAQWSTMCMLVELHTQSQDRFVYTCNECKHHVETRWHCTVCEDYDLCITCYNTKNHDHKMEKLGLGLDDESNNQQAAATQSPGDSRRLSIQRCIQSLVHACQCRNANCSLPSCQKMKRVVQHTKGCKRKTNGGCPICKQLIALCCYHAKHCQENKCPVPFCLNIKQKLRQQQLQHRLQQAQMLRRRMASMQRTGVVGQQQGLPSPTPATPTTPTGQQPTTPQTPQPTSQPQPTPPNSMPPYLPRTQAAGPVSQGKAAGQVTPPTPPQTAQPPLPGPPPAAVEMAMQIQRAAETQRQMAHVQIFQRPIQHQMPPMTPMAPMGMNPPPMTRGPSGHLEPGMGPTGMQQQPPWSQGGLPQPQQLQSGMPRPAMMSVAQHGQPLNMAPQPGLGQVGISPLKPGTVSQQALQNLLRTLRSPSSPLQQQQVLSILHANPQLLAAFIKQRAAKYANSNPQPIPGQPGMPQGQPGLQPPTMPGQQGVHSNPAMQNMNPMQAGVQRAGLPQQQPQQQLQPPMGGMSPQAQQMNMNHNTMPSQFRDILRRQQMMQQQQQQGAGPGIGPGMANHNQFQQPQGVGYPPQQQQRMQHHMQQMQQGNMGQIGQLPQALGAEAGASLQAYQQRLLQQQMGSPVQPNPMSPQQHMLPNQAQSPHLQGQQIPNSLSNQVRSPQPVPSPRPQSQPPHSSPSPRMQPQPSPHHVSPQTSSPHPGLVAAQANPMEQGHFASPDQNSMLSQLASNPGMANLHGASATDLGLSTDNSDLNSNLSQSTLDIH
Experimental: as §1

[3] = system: MOLM-16; assay: Cell viability assay (CellTiter-Glo 2.0), MOLM-16; conditions: MOLM16; MOLM-16 cells
[4] = system: SU-DHL-1; assay: Cell viability assay (CellTiter-Glo 2.0), SU-DHL-1; conditions: Homo sapiens, 96 h; SU-DHL-1 cells, 4 days
Experimental: SU-DHL-1 and SUP-M2 cell viability was determined by CellTiter-Glo 2.0 Cell Viability Assay (Promega). […] In a typical procedure, cells seeded at 1000 cells per well in 384-well white plates (Corning) were incubated with serially diluted compounds for 4 days at 37° C. with 5% CO2. At the end of treatment, CellTiter-Glo 2.0 was added to the wells and luminescence was acquired on TECAN PSARK plate reader. Untreated cells were used as control. Data points were fit with a four-parameter equation to generate a concentration-response curve. IC50 values were calculated using a nonlinear regression analysis of the mean±SD from triplicate.

[5] = biological target: T3, STAT3 (Homo sapiens, UniProt P40763); assay: STAT3 degradation HiBiT assay (STAT3-HIBIT KI HeLa); conditions: STAT3-HIBIT KI HeLa cells, 24 hours
T3 construct: host or cells: HeLa (STAT3-HiBiT CRISPR knock-in clone)
Experimental: STAT3-HIBIT KI HeLa cell line was purchased from Promega. This cell line is a clone created by using CRISPR-Cas9 to fuse HiBIT to the 3′ end of STAT3 in HeLa cells. DMEM medium and FBS were purchased from Gibco/Thermo Fisher Scientific. STAT3 degradation was determined based on quantification of luminescent signal using Nano-Glo HiBIT Lytic Detection System. In a typical procedure, cells seeded at 20000 cells per well in 96-well white plates (Corning) were incubated with serially diluted compounds for 24 hours at 37° C. with 5% CO2. At the end of treatment, Nano-Glo HiBIT Lytic Detection reagents was added to the wells and luminescence was acquired on TECAN PSARK plate reader. Untreated cells were used as control. Data points were fit with a four-parameter equation to generate a concentration-response curve. IC50 values were calculated using a nonlinear regression analysis of the mean±SD from triplicate.

T1 sequence (Q92793 whole entry): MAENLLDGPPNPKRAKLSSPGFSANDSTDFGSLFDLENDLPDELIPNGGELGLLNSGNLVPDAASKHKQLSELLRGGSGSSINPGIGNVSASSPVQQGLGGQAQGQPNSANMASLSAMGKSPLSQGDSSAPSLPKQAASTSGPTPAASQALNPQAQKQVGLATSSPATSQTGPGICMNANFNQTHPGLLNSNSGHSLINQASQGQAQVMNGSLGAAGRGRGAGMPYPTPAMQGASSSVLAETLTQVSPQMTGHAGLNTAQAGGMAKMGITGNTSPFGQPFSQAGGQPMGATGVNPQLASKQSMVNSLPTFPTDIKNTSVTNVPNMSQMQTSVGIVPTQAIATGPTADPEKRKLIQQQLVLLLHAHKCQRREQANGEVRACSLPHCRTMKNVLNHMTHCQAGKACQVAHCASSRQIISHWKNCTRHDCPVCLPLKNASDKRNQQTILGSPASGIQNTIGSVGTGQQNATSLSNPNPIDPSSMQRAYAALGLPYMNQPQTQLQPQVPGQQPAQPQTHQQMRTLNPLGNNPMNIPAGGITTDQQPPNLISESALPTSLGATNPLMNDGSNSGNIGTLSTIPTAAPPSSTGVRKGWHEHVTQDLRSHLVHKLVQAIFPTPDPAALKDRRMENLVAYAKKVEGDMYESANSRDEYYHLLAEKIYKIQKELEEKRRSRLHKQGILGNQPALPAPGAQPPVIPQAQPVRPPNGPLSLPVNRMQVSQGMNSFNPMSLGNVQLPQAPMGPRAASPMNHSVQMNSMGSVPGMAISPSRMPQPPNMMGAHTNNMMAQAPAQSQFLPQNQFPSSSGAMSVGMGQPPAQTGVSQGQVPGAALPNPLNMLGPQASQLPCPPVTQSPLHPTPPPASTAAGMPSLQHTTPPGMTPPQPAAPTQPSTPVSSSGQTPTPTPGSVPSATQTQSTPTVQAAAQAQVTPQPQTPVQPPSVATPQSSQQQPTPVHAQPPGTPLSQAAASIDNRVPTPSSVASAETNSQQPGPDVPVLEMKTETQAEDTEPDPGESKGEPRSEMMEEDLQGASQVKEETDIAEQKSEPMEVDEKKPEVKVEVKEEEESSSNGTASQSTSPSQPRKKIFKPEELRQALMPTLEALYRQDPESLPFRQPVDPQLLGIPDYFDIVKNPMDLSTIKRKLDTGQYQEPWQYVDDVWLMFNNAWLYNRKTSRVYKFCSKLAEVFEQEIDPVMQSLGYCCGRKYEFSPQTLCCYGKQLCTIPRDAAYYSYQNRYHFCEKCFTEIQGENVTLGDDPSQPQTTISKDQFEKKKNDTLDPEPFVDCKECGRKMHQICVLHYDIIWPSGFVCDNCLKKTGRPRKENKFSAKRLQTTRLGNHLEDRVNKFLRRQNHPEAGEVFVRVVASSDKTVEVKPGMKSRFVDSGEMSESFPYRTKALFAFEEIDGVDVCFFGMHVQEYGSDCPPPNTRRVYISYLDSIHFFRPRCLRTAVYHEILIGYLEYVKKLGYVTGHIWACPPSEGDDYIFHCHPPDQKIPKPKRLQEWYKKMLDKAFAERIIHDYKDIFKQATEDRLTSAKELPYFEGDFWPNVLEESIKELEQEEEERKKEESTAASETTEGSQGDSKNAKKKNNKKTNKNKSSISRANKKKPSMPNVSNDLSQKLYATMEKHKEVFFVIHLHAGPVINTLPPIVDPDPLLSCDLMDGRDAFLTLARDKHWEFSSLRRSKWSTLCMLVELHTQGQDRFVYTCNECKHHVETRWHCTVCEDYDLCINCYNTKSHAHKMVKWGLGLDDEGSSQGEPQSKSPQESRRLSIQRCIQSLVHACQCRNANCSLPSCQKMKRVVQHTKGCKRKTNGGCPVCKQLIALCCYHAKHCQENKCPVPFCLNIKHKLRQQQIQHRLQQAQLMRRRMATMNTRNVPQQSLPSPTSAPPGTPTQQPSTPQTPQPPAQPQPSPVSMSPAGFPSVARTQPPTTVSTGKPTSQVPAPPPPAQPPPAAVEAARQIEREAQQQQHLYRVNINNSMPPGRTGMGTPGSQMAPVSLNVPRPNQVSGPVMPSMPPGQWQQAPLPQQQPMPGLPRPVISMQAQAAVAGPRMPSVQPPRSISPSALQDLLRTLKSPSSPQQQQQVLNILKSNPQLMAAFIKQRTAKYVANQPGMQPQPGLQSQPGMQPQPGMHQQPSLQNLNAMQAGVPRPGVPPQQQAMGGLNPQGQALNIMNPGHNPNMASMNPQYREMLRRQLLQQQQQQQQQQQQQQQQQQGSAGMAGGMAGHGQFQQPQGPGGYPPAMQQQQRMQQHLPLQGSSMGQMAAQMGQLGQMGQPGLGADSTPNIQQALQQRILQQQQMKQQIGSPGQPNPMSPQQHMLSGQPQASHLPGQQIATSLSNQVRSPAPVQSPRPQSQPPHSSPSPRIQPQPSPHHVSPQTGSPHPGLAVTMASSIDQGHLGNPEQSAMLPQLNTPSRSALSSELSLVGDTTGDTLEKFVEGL

Structure (SMILES) | CBP Degradation DCmax [1] | DC50 [1] | DC50 [2] | P300 Degradation DCmax [2] | IC50 [3] | IC50 [4] | DC50 [5] | Dmax [5]
CC(=O)N1CCc2c(c(N3CCCc4cc(-c5cnn(C)c5)c(C(F)F)cc43)nn2[C@H]2CC[C@H](C(=O)N3CCC4(CC3)COc3c4ccc4c3CN([C@H]3CCC(=O)NC3=O)C4=O)CC2)C1 [CPD-005, (S)-3-(1′-((1r,4S)-4-(5-acetyl-3-(7-(difluoromethyl)-6-(1-methyl-1H-pyrazol-4-yl)-3,4-dihydroquinolin-1(2H)-yl)-4,5,6,7-tetrahydro-1H-pyrazolo[4,3-c]pyridin-1-yl)cyclohexane-1-carbonyl)-6-oxo-6,8-dihydro-2H,7H-spiro[furo[2,3-e]isoindole-3,4′-piperidin]-7-yl)piperidine-2,6-dione] | A (A (≥90%)) | < 0.1 nM | < 0.1 nM | A (A (≥90%)) |  |  |  | 
CC(=O)N1CCc2c(c(N3CCCc4cc(-c5cnn(C)c5)c(C(F)F)cc43)nn2[C@H]2CC[C@@H](C(=O)N3CCC4(CC3)COc3c4ccc4c3CN([C@H]3CCC(=O)NC3=O)C4=O)CC2)C1 [CPD-006, (S)-3-(1′-((1s,4R)-4-(5-acetyl-3-(7-(difluoromethyl)-6-(1-methyl-1H-pyrazol-4-yl)-3,4-dihydroquinolin-1(2H)-yl)-4,5,6,7-tetrahydro-1H-pyrazolo[4,3-c]pyridin-1-yl)cyclohexane-1-carbonyl)-6-oxo-6,8-dihydro-2H,7H-spiro[furo[2,3-e]isoindole-3,4′-piperidin]-7-yl)piperidine-2,6-dione] | A (A (≥90%)) | < 0.1 nM | 0.1 to 1 nM | A (A (≥90%)) |  |  |  | 
CS(=O)(=O)c1cccc(OC[C@H](CCC(N)=O)NC(=O)[C@@H]2CC[C@@H]3CCN(C(=O)CCN4CCC5(CC4)COc4c5ccc5c4CN([C@H]4CCC(=O)NC4=O)C5=O)C[C@H](NC(=O)c4cc5cc(C(F)(F)P(=O)(O)O)ccc5s4)C(=O)N32)c1 [STD 69, ((2-(((5S,8S,10aR)-8-(((S)-5-amino-1-(3-(methylsulfonyl)phenoxy)-5-oxopentan-2-yl)carbamoyl)-3-(3-(7-((S)-2,6-dioxopiperidin-3-yl)-6-oxo-7,8-dihydro-2H,6H-spiro[furo[2,3-e]isoindole-3,4′-piperidin]-1′-yl)propanoyl)-6-oxodecahydropyrrolo[1,2-a][1,5]diazocin-5-yl)carbamoyl)benzo[b]thiophen-5-yl)difluoromethyl)phosphonic acid] |  |  |  |  | 1000 to 10000 nM | 1000 to 10000 nM | 1000 to 10000 nM | 60 to 80%
NC(=O)CC[C@H](NC(=O)[C@@H]1CC[C@@H]2CCN(C(=O)CCCCN3CCC4(CC3)COc3c4ccc4c3CN([C@H]3CCC(=O)NC3=O)C4=O)C[C@H](NC(=O)c3cc4cc(C(F)(F)P(=O)(O)O)ccc4s3)C(=O)N21)C(=O)NCc1cccc(Cl)c1 [STD 70, ((2-(((5S,8S,10aR)-8-(((S)-5-amino-1-((3-chlorobenzyl)amino)-1,5-dioxopentan-2-yl)carbamoyl)-3-(5-(7-((S)-2,6-dioxopiperidin-3-yl)-6-oxo-7,8-dihydro-2H,6H-spiro[furo[2,3-e]isoindole-3,4′-piperidin]-1′-yl)pentanoyl)-6-oxodecahydropyrrolo[1,2-a][1,5]diazocin-5-yl)carbamoyl)benzo[b]thiophen-5-yl)difluoromethyl)phosphonic acid] |  |  |  |  | 1000 to 10000 nM | 1000 to 10000 nM | 100 to 1000 nM | ≥ 80%
CS(=O)(=O)c1cccc(OC[C@H](CCC(N)=O)NC(=O)[C@@H]2CC[C@@H]3CCN(C(=O)CCCCN4CCC5(CC4)COc4c5ccc5c4CN([C@H]4CCC(=O)NC4=O)C5=O)C[C@H](NC(=O)c4cc5cc(C(F)(F)P(=O)(O)O)ccc5s4)C(=O)N32)c1 [STD 71, ((2-(((5S,8S,10aR)-8-(((S)-5-amino-1-(3-(methylsulfonyl)phenoxy)-5-oxopentan-2-yl)carbamoyl)-3-(5-(7-((S)-2,6-dioxopiperidin-3-yl)-6-oxo-7,8-dihydro-2H,6H-spiro[furo[2,3-e]isoindole-3,4′-piperidin]-1′-yl)pentanoyl)-6-oxodecahydropyrrolo[1,2-a][1,5]diazocin-5-yl)carbamoyl)benzo[b]thiophen-5-yl)difluoromethyl)phosphonic acid] |  |  |  |  | 100 to 1000 nM | 1000 to 10000 nM | 100 to 1000 nM | ≥ 80%
CC(C)S(=O)(=O)c1ccc(CNC(=O)[C@H](CCC(N)=O)NC(=O)[C@@H]2CC[C@@H]3CCN(C(=O)CCCCN4CCC5(CC4)COc4c5ccc5c4CN([C@H]4CCC(=O)NC4=O)C5=O)C[C@H](NC(=O)c4cc5cc(C(F)(F)P(=O)(O)O)ccc5s4)C(=O)N32)cc1 [STD 80, ((2-(((5S,8S,10aR)-8-(((S)-5-amino-1-((4-(isopropylsulfonyl)benzyl)amino)-1,5-dioxopentan-2-yl)carbamoyl)-3-(5-(7-((S)-2,6-dioxopiperidin-3-yl)-6-oxo-7,8-dihydro-2H,6H-spiro[furo[2,3-e]isoindole-3,4′-piperidin]-1′-yl)pentanoyl)-6-oxodecahydropyrrolo[1,2-a][1,5]diazocin-5-yl)carbamoyl)benzo[b]thiophen-5-yl)difluoromethyl)phosphonic acid] |  |  |  |  | 100 to 1000 nM | 1000 to 10000 nM | 100 to 1000 nM | ≥ 80%
CS(=O)(=O)c1cccc(OC[C@H](CCC(N)=O)NC(=O)[C@@H]2CC[C@@H]3CCN(C(=O)CCCCN4CCC5(CC4)COc4c5ccc5c4CN([C@H]4CCC(=O)NC4=O)C5=O)C[C@H](NC(=O)c4cc5cc(C(=O)P(=O)(O)O)ccc5[nH]4)C(=O)N32)c1 [STD 84, (2-(((5S,8S,10aR)-8-(((S)-5-amino-1-(3-(methylsulfonyl)phenoxy)-5-oxopentan-2-yl)carbamoyl)-3-(5-(7-((S)-2,6-dioxopiperidin-3-yl)-6-oxo-7,8-dihydro-2H,6H-spiro[furo[2,3-e]isoindole-3,4′-piperidin]-1′-yl)pentanoyl)-6-oxodecahydropyrrolo[1,2-a] [1,5]diazocin-5-yl)carbamoyl)-1H-indole-5-carbonyl)phosphonic acid] |  |  |  |  | 100 to 1000 nM | 1000 to 10000 nM | 100 to 1000 nM | ≥ 80%
CCS(=O)(=O)c1ccc(CNC(=O)[C@H](CCC(N)=O)NC(=O)[C@@H]2CC[C@@H]3CCN(C(=O)CCCCN4CCC5(CC4)COc4c5ccc5c4CN([C@H]4CCC(=O)NC4=O)C5=O)C[C@H](NC(=O)c4cc5cc(C(=O)P(=O)(O)O)ccc5[nH]4)C(=O)N32)cc1 [STD 85, (2-(((5S,8S,10aR)-8-(((S)-5-amino-1-((4-(ethylsulfonyl)benzyl)amino)-1,5-dioxopentan-2-yl)carbamoyl)-3-(5-(7-((S)-2,6-dioxopiperidin-3-yl)-6-oxo-7,8-dihydro-2H,6H-spiro[furo[2,3-e]isoindole-3,4′-piperidin]-1′-yl)pentanoyl)-6-oxodecahydropyrrolo[1,2-a] [1,5]diazocin-5-yl)carbamoyl)-1H-indole-5-carbonyl)phosphonic acid] |  |  |  |  | 100 to 1000 nM | 1000 to 10000 nM | 100 to 1000 nM | ≥ 80%
CC(C)S(=O)(=O)c1ccc(CNC(=O)[C@H](CCC(N)=O)NC(=O)[C@@H]2CC[C@@H]3CCN(C(=O)CCCCN4CCC5(CC4)COc4c5ccc5c4CN([C@H]4CCC(=O)NC4=O)C5=O)C[C@H](NC(=O)c4cc5cc(C(=O)P(=O)(O)O)ccc5[nH]4)C(=O)N32)cc1 [STD 86, (2-(((5S,8S,10aR)-8-(((S)-5-amino-1-((4-(isopropylsulfonyl)benzyl)amino)-1,5-dioxopentan-2-yl)carbamoyl)-3-(5-(7-((S)-2,6-dioxopiperidin-3-yl)-6-oxo-7,8-dihydro-2H,6H-spiro[furo[2,3-e]isoindole-3,4′-piperidin]-1′-yl)pentanoyl)-6-oxodecahydropyrrolo[1,2-a] [1,5]diazocin-5-yl)carbamoyl)-1H-indole-5-carbonyl)phosphonic acid] |  |  |  |  | 100 to 1000 nM | 1000 to 10000 nM | 100 to 1000 nM | ≥ 80%
